In ChEMBL document CHEMBL5465560, “Selectivity Literature for EUbOPEN Chemogenomic Library” (2024):

How the values were obtained:
[1] = biological target: T1, Aurora kinase C (Homo sapiens) (UniProt Q9UQB9); assay: Selectivity interaction (Kinase panel (Z-LYTE Assay)) EUB0001632a AURKC; conditions: at 10 µM
T1 sequence (whole entry): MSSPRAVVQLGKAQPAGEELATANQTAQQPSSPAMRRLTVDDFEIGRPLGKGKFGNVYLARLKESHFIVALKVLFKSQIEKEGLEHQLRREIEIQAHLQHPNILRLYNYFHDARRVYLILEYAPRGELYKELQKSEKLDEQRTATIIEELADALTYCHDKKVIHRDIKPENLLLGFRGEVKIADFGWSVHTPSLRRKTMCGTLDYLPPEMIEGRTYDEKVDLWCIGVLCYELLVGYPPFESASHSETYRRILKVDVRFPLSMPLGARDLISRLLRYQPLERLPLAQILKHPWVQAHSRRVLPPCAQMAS

[2] = biological target: Myosin-IIIa (Homo sapiens) (UniProt Q8NEV4); assay: Selectivity interaction (KinomeScan (DiscoverX)) EUB0000666a MYO3A; conditions: at 10 µM
[3] = biological target: Insulin-like growth factor 1 receptor (Homo sapiens, UniProt P08069); conditions: at 3 µM
[4] = biological target: Serine/threonine-protein kinase Chk2 (Homo sapiens) (UniProt O96017); assay: Selectivity interaction (SelectScreen profiling (Invitrogen)) EUB0000607a CHEK2; conditions: at 2 µM
[5] = biological target: Cyclin-dependent kinase 8 (Homo sapiens, UniProt P49336); conditions: at 10 µM
[6] = biological target: T2, Mitogen-activated protein kinase 13 (Homo sapiens) (UniProt O15264); assay: Selectivity interaction (KinomeScan (DiscoverX)) EUB0000092b MAPK13; conditions: at 10 µM
T2 sequence (whole entry): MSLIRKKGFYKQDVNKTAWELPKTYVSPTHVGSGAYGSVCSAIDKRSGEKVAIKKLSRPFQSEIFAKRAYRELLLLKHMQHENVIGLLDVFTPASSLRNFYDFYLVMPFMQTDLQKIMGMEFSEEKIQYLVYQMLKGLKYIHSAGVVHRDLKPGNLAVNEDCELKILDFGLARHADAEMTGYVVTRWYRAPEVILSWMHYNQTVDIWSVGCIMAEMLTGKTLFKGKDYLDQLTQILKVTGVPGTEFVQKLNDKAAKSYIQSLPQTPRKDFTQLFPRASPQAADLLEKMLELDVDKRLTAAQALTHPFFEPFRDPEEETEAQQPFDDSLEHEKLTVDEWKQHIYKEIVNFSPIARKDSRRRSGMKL

[7] = biological target: T3, Serine/threonine-protein kinase Nek10 (Homo sapiens) (UniProt Q6ZWH5); assay: Selectivity interaction (Ambit KINOMEscan and KiNATiv profiling in Jurkat cells) EUB0000090b NEK10; assay type: cell-based; conditions: at 1 µM
T3 sequence (whole entry): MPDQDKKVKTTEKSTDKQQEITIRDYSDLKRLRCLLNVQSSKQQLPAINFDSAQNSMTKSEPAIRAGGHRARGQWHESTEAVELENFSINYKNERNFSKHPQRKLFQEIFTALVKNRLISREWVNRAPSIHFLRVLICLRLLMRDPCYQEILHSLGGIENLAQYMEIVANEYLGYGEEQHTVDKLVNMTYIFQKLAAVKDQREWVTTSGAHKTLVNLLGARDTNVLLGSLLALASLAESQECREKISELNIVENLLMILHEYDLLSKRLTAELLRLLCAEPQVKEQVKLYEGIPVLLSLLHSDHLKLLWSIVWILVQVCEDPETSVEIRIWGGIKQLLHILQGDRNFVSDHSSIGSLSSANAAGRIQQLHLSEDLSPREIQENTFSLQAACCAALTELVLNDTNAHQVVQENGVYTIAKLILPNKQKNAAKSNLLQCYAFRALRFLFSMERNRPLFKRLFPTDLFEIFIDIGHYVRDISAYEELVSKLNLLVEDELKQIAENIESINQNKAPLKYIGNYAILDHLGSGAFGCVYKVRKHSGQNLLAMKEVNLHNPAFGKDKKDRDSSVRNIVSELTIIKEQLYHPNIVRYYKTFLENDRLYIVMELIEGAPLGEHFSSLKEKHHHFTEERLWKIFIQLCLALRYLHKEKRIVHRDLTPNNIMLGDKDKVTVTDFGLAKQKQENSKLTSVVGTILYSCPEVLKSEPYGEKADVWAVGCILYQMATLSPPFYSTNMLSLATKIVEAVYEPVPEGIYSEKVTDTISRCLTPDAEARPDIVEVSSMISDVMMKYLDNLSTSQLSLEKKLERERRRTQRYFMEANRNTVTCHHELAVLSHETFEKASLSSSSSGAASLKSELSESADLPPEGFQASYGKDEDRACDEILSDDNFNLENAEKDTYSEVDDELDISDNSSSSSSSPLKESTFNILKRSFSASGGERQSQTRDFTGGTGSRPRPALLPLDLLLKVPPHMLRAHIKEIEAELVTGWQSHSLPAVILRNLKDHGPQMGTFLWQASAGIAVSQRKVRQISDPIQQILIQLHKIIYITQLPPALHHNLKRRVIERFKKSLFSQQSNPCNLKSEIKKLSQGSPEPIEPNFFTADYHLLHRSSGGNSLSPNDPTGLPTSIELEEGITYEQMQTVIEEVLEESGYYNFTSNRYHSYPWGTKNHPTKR

Serine/threonine-protein kinase Chk2 (Homo sapiens), sequence (O96017 whole entry): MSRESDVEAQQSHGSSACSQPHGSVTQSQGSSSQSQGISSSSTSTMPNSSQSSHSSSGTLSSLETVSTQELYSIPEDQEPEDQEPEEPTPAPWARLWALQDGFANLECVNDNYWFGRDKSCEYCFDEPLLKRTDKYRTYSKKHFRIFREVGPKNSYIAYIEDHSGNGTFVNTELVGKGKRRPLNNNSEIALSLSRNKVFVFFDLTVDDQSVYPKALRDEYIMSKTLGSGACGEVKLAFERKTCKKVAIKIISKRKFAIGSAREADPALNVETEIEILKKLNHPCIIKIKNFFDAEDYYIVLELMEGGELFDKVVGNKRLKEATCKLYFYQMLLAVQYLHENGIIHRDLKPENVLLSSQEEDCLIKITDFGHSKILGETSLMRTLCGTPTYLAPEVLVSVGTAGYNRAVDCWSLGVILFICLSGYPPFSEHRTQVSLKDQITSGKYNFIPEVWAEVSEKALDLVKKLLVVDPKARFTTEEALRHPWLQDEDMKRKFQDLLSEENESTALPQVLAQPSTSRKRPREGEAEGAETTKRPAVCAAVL
Insulin-like growth factor 1 receptor, sequence (P08069 31-736 limits assumed): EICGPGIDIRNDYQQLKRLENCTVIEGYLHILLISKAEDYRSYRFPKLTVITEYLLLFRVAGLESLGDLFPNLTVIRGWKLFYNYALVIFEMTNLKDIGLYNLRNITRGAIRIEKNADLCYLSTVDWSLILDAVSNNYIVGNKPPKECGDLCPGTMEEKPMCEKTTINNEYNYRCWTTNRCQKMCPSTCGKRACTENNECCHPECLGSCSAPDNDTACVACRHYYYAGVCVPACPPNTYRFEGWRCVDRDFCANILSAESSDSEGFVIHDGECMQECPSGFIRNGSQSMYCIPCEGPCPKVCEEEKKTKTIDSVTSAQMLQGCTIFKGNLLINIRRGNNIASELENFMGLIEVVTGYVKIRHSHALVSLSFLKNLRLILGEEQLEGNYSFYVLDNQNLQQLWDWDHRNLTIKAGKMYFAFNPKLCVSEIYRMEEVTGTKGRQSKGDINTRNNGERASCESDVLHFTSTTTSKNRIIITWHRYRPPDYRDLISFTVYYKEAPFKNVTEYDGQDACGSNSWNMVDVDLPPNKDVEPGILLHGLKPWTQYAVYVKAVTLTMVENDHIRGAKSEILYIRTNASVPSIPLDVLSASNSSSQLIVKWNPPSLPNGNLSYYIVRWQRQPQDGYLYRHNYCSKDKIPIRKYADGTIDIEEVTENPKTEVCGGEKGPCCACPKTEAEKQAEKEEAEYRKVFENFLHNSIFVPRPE
Insulin-like growth factor 1 receptor, sequence (P08069 741-1367 limits assumed): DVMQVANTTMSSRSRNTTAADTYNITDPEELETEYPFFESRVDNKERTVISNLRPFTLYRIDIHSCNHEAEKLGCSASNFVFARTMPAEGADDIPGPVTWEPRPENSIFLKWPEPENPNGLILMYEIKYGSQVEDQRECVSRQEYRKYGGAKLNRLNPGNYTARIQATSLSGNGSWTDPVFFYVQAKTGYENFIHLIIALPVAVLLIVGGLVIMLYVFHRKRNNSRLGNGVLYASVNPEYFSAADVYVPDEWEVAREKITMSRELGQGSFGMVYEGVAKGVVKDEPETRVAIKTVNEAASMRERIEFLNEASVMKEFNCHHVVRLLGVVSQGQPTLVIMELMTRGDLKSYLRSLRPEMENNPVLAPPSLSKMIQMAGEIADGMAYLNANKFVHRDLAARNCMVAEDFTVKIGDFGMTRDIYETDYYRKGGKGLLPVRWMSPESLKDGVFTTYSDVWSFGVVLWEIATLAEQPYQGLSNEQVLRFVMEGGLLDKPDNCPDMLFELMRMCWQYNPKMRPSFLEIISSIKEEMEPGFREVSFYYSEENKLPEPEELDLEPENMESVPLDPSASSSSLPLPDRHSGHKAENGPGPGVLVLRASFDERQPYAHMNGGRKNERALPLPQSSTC
Myosin-IIIa (Homo sapiens), sequence (Q8NEV4 whole entry): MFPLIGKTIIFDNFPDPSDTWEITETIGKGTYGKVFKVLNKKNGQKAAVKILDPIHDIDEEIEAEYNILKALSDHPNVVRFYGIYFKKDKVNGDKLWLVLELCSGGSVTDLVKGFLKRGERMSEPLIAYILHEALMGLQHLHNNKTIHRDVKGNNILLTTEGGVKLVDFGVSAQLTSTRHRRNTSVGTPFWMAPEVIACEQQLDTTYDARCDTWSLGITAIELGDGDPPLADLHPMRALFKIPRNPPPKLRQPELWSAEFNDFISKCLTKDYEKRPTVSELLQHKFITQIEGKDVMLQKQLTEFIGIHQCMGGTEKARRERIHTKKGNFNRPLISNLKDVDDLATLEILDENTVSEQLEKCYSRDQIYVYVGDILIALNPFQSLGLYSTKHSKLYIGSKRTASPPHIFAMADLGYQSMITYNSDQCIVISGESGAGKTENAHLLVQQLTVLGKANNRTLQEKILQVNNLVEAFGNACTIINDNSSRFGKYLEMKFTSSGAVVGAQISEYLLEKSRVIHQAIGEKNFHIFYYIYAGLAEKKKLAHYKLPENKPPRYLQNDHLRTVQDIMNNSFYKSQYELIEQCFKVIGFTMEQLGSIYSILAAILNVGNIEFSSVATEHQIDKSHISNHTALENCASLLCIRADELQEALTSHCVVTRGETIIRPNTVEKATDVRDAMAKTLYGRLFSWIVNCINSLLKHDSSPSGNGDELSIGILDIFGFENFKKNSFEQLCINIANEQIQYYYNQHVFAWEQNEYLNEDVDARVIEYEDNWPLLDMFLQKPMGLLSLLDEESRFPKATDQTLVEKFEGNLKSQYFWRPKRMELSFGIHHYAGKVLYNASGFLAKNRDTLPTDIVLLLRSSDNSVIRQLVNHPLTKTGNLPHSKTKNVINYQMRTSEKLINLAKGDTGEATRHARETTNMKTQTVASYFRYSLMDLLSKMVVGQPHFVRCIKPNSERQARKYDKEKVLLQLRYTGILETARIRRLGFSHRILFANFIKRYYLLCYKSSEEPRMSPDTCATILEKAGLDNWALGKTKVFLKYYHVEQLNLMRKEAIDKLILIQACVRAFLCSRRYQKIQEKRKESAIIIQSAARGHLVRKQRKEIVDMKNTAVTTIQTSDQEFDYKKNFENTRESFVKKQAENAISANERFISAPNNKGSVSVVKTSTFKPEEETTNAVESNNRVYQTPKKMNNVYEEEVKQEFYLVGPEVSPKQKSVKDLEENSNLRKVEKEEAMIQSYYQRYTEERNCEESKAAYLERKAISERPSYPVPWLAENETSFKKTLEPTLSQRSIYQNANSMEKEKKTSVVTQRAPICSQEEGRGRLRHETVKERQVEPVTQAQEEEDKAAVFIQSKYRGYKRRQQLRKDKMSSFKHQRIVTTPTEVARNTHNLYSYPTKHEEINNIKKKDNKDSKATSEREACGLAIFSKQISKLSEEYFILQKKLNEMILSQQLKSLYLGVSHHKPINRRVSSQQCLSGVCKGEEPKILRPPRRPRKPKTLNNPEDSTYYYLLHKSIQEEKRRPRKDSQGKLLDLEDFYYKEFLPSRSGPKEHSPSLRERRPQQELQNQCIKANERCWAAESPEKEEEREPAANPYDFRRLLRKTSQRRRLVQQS
Cyclin-dependent kinase 8, sequence (P49336 whole entry): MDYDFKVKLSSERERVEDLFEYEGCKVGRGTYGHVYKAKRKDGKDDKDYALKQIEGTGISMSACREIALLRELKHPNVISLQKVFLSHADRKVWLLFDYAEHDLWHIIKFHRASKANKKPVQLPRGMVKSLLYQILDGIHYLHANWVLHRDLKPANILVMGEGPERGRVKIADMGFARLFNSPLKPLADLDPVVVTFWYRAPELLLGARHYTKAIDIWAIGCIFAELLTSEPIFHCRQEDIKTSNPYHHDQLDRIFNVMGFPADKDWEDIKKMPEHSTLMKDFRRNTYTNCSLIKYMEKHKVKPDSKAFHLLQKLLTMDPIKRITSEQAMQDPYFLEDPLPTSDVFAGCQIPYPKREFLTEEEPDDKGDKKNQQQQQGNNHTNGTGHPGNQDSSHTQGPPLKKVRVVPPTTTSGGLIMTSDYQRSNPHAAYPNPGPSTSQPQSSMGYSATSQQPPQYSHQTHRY

In the case of `Cn1cc(-n2cnc3c(NCc4nc5cc(Cl)c(Cl)cc5[nH]4)nc(N4CCOCC4)nc32)cn1`, the % of control [1] is reported as 8.76%.
`O=C(NOC[C@H](O)CO)c1ccc(F)c(F)c1Nc1ccc(I)cc1F` was tested, and the % of control [2] was 47%.
`CCc1cc(Nc2nccc(-c3c(-c4ccc(OC)c(C(=O)Nc5c(F)cccc5F)c4)nc4ccccn34)n2)c(OC)cc1N1CCC(N2CCN(S(C)(=O)=O)CC2)CC1` was tested, and the % of inhibition [3] was 100%.
`CNC(=O)Nc1ccc(-c2nc(N3CC4CCC(C3)O4)c3cnn(C4CCC5(CC4)OCCO5)c3n2)cc1` gave a % of inhibition [4] of 3%.
Compound `CCN(CC)CCCCNc1ncc2cc(-c3cc(OC)cc(OC)c3)c(NC(=O)NC(C)(C)C)nc2n1` has a % of control [5] of 100%.
`CCC(=O)N1CCN(c2ccc(-n3c(=O)ccc4cnc5ccc(-c6cnc7ccccc7c6)cc5c43)cc2C(F)(F)F)CC1` showed a % of control [6] of 39%.
`CN(C)C/C=C/C(=O)Nc1ccc(C(=O)N2CCCC(Nc3ncc(Cl)c(-c4c[nH]c5ccccc45)n3)C2)cc1` (configuration not stated) was tested, and the % of control [7] was 100%.
